# Test results: patent USRE48267E1, “Variants of C-type natriuretic peptide” (priority 2009, dated 2020)
# Where a SMILES comes first, the peptide text is derived from it. Bridges are numbered along the chain shown (N, C = ends). The star is where a group is joined. MeO(CH2CH2O)23CH2CH2CO = COCCOCCOCCOCCOCCOCCOCCOCCOCCOCCOCCOCCOCCOCCOCCOCCOCCOCCOCCOCCOCCOCCOCCOCCC(=O)*
# Legend:
# [1] = target: Recombinant human NEP (Homo sapiens, UniProt P08473); experiment: in vitro NEP cleavage assay (disappearance of non-cleaved CNP variant)
# Method in brief: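 Recombinant human NEP (1 ug/mL final) incubated with 100 uM CNP variant in 0.1 M Tris, pH 7, at 37° C for various times, then quenched with EDTA (10 mM final) and heat. Samples reduced and analysed by HPLC and mass spectrometry. Half-life derived from loss of intact variant over time.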
# [2] = test system: wild-type mouse femurs and tibias; experiment: mouse organ culture model of endochondral bone growth, wild-type bones; conditions: for longitudinal growth of wild-type mouse femur ex vivo: 8 days
# Method: To determine the efficacy of CNP variants in stimulating longitudinal bone growth, CNP variants were tested in a mouse organ culture model of endochondral bone growth in wild-type mice and transgenic mice having a G380R mutation in the human FGFR-3 gene (FGFR3^wt/Ach heterozygote) which represent a mouse model of mild achondroplasia. In brief, the pharmacological activity of wild-type CNP22 and CNP variants was compared in an organ culture model of embryonic or neonatal mouse tibiae, isolated from wild-type and FGFR3^wt/Ach littermates. Overall bone growth and histological changes within the growth plate were assessed. Conditioned culture medium is also assessed for biomarkers of intracellular signaling (cGMP), cartilage metabolism (type II collagen, other collagens, aggrecan chondroitin sulfate), bone metabolism (bone alkaline phosphatase, osteocalcin, type I collagen [C-telopeptide, N-telopeptide]), and inflammation (interleukin-1, interleukin 6, interleukin-11).
# The efficacy of wtCNP22, CNP37 and PEO24-[…]22(K4R) (SEQ ID NO: 36) in stimulating longitudinal femoral growth was evaluated in the mouse organ culture model. For these experiments femora were isolated from 2-3 day old wild-type mice and cultured in alphaMEM supplemented with 0.2% BSA, 0.5 mM L-glutamine, 40 units penicillin/mL and 40 ug streptomycin/mL, for 8 days in the presence of vehicle, CNP22 or CNP variants. The treatment commenced at day 0 and was repeated every two days thereafter, as the medium was changed. Bones were measured prior to treatment and every two days thereafter, using a dissection microscope fitted with a 1 cm eye-piece reticule. Conditioned medium was used for biomarker analysis. At day 8 bones were fixed in 4% paraformaldehyde for 24 hr, decalcified in 5% formic acid for 24 hrs, dehydrated and embedded in paraffin. Bones were sectioned at 5 um (microns), which were then deparaffinized, rehydrated, and stained with Alcian Blue for 30 min (pH 2.5; MasterTech). Alcian Blue stains cartilage blue. Stained sections were visualized and photographed by brightfield microscopy. The thickness of the hypertrophic region of the growth plate cartilage was determined by image analysis.
# In addition to the distribution of CNP variants in the bone growth plate, the ex vivo effects of CNP37, CNP22 and vehicle on cells in the FGFR3^ach and wild-type growth plate, e.g., hypertrophic cell size and cellularity of proliferating zone, were also evaluated. Bone samples were prepared, including Alcian Blue staining, as described above. Images of the entire proximal growth plate were taken at 4× magnitude. The growth plate is divided into three zones, starting from the epiphyseal side of cartilage: the resting zone (individual small chondrocytes), proliferating zone (columns of stacked chondrocytes parallel to the long axis of the bone), and hypertrophic zone (large chondrocytes and thin septa between the chondrocytes). In these regions, measurements were made by ImageJ software, including the number of proliferating chondrocytes per column and the density of hypertrophic chondrocytes. […] The cell size of hypertrophic chondrocytes was calculated by 1 over determined cell density. […]
# Femurs and tibias were isolated from wild-type and FGFR3^ach mice as described above. […] On the eighth day, media was collected and analyzed for the biomarkers cGMP (cyclic guanosine 3′, 5′ cyclic monophosphate) and fragments of cleaved collagen type II, a cartilage-specific marker for cartilage turnover. […]
# Chain of Recombinant human NEP (P08473 whole entry): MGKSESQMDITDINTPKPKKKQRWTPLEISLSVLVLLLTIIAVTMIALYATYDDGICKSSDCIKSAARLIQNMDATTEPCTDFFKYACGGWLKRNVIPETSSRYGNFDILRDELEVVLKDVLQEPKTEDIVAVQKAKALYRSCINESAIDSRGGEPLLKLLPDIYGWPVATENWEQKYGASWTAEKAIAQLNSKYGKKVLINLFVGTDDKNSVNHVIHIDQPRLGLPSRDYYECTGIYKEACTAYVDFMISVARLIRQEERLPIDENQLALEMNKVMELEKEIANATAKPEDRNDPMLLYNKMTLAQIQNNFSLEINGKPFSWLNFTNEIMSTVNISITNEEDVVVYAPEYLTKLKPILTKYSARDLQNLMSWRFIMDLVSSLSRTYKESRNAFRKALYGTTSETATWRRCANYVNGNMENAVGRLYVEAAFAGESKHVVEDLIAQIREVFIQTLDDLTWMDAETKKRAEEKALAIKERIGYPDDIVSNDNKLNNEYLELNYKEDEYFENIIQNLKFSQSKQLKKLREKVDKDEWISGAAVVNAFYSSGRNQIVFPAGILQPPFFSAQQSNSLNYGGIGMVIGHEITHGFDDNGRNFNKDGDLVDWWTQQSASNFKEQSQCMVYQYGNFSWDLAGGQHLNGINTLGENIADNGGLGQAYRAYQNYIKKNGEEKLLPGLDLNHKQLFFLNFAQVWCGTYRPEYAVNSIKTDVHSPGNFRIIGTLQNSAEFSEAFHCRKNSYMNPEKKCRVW
compound,measurement,setting,value
CC[C@H](C)[C@@H]1NC(=O)[C@H](CCCNC(=N)N)NC(=O)[C@H](CC(=O)O)NC(=O)[C@H](CC(C)C)NC(=O)[C@H](CCCCN)NC(=O)[C@H](CC(C)C)NC(=O)CNC(=O)[C@H](Cc2ccccc2)NC(=O)[C@@H](NC(=O)CNC(=O)[C@H](CCCNC(=N)N)NC(=O)[C@H](CO)NC(=O)[C@H](CC(C)C)NC(=O)CNC(=O)[C@H](CCCNC(=N)N)NC(=O)[C@H](CCCNC(=N)N)NC(=O)[C@H](CC(N)=O)NC(=O)[C@H](C)NC(=O)CNC(=O)CCOCCOCCOCCOCCOCCOCCOCCOCCOCCOCCOCCOCCOCCOCCOCCOCCOCCOCCOCCOCCOCCOCCOCCOC)CSSC[C@@H](C(=O)O)NC(=O)CNC(=O)[C@H](CC(C)C)NC(=O)CNC(=O)[C@H](CO)NC(=O)[C@H](CCSC)NC(=O)[C@H](CO)NC(=O)CNC1=O [PEO24-GANRR-CNP22(K4R)] ({MeO(CH2CH2O)23CH2CH2CO}-GANRRGLSRGCFGLKLDRIGSMSGLGC-OH; disulfide 11-27),resistance to NEP cleavage (in words),[1],completely resistant to NEP cleavage over the assay period of 160 minutes
same,cGMP levels in conditioned media,"[2]; ex-planted wild-type mouse femurs and tibias, day 8",large increase (p<0.01)
same,longitudinal growth of wild-type mouse tibia ex vivo,[2]; treated every two days,increased the longitudinal growth of the tibia compared to vehicle or CNP22
same,longitudinal growth of wild-type mouse femur ex vivo,[2]; treated every two days,the most effective
same,longitudinal growth of wild-type mouse femur ex vivo,"[2]; treated every two days, listed as PE024-GANRR-CNP22(K4R)",stimulated the growth of wild-type mouse femur
same,levels of cleaved collagen type II in conditioned media,[2]; wild-type mouse femurs,increased
